Where a SMILES comes first, the peptide text is derived from it. [ ]: non-standard residue; d: D form. pGlu = O=C1CC[C@@H](C(=O)O)N1; Thz = O=C(O)[C@@H]1CSCN1
How the values were obtained:
[1] = biological target: T1, Muscarinic acetylcholine receptor M2 (Homo sapiens, UniProt P08172); assay type: functional, cell-based
T1 sequence (P08172 whole entry): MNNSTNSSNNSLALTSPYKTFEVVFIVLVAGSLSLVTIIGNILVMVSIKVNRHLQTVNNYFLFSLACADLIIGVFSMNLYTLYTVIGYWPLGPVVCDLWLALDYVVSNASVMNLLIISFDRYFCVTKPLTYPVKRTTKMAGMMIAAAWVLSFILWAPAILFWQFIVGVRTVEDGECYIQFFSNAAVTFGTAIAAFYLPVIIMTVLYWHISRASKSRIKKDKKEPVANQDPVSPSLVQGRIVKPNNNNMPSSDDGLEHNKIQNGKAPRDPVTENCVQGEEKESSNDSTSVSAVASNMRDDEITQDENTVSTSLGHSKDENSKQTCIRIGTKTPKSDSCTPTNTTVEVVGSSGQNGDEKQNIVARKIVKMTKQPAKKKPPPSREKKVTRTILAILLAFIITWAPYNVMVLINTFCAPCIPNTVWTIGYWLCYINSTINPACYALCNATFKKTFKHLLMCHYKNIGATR

[2] = biological target: T2, 5-hydroxytryptamine receptor 2C (Homo sapiens, UniProt P28335)
T2 sequence (P28335 whole entry): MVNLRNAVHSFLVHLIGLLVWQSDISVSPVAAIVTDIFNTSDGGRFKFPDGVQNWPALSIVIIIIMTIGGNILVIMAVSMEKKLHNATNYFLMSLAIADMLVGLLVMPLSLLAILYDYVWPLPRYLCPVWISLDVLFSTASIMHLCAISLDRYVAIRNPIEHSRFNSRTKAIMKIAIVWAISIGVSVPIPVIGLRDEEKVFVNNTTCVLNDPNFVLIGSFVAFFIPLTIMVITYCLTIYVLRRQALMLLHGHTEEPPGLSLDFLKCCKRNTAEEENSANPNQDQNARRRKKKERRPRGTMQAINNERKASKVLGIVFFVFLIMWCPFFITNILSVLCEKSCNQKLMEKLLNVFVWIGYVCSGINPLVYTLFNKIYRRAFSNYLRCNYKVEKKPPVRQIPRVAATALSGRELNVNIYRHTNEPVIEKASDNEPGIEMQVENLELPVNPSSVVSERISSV

[3] = biological target: T3, 5-hydroxytryptamine receptor 3A (Homo sapiens, UniProt P46098); assay type: functional
T3 sequence (P46098 whole entry): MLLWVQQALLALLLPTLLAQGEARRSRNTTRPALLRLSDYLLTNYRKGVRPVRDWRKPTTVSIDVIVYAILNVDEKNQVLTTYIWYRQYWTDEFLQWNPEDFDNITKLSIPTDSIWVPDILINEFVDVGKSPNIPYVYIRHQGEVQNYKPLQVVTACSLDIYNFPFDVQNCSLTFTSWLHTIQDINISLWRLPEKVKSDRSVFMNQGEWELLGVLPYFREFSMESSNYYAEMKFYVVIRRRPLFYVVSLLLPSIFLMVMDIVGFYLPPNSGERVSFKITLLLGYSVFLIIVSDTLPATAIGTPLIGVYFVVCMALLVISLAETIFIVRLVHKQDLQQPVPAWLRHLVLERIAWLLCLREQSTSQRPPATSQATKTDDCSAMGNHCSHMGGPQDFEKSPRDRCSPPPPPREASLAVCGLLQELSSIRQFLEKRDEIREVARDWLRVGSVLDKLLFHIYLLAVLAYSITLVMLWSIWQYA

[4] = biological target: T4, Neuropeptide Y receptor type 1 (Homo sapiens, UniProt P25929)
T4 sequence (P25929 whole entry): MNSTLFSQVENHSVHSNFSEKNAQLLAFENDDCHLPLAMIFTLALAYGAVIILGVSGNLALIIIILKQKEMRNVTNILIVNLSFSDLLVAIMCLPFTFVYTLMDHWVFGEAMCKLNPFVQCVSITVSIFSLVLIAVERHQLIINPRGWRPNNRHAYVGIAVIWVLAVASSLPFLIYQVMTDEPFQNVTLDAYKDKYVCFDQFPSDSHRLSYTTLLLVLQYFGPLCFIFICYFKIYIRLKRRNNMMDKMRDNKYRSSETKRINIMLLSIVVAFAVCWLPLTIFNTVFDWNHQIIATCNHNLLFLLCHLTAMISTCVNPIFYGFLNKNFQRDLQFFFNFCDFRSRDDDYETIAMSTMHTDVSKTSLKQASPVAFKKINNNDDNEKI

[5] = biological target: T5, Prostaglandin G/H synthase 1 (Rattus norvegicus, UniProt Q63921); assay type: functional
T5 sequence (Q63921 whole entry): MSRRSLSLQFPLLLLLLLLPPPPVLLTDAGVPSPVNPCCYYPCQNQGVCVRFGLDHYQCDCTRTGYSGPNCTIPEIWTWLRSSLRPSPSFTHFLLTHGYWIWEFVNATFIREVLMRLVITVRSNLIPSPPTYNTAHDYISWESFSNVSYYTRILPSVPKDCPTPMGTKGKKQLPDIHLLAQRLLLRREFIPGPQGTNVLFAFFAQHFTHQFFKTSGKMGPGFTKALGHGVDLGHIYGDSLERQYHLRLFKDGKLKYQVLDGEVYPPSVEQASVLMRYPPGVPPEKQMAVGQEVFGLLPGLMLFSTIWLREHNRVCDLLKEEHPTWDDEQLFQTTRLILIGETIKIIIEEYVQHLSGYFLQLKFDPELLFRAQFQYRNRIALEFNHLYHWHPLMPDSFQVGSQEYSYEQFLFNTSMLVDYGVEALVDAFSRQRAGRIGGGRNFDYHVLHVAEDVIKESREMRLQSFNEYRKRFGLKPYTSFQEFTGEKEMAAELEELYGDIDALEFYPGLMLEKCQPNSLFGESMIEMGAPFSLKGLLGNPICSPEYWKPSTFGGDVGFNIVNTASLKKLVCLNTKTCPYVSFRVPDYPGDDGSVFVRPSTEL
Also: assay procedure not described here.

Compound | AC50 [1] [µM] | AC50 [2] [µM] | AC50 [3] [µM] | AC50 [4] [µM] | AC50 [5] [µM]
CC/C=C\C/C=C\C/C=C\C/C=C\C/C=C\CCCC(=O)OCC [ICOSAPENT ETHYL] | > 30 | > 30 | > 30 | > 30 | 2.4
NNC(=O)c1ccncc1 [ISONIAZID] | > 30 | > 30 | > 30 | > 30 | > 30
COc1ccc(CN2CCN(C(c3ccc(F)cc3)c3ccc(F)cc3)CC2)c(OC)c1OC [LOMERIZINE] | > 30 | 16 | > 30 | > 30 | > 30
O=C1Nc2ccc(Cl)cc2C(c2ccccc2Cl)=NC1O (stereo not given) [LORAZEPAM] | > 10 | > 30 | > 30 | > 30 | > 30
CN1CCN=C(c2ccccc2)c2cc(Cl)ccc21 [MEDAZEPAM] | > 30 | 25 | > 30 | > 30 | 16
CC(=O)[C@H]1CC[C@H]2[C@@H]3C[C@H](C)C4=CC(=O)CC[C@]4(C)[C@H]3[C@@H](O)C[C@]12C [MEDRYSONE] | > 10 | > 30 | > 30 | > 10 | > 10
CCCC(C)(COC(N)=O)COC(N)=O [MEPROBAMATE] | > 10 | > 30 | > 30 | > 10 | > 10
COc1ccc2cc(CCC(C)=O)ccc2c1 [NABUMETONE] | > 10 | > 30 | > 30 | > 10 | > 10
Cc1ccnc2c1NC(=O)c1cccnc1N2C1CC1 [NEVIRAPINE] | > 10 | > 10 | > 10 | > 30 | > 30
O=C(NCCO[N+](=O)[O-])c1cccnc1 [NICORANDIL] | > 30 | > 30 | > 30 | > 30 | > 30
O=C(c1cc(Cc2n[nH]c(=O)c3ccccc23)ccc1F)N1CCN(C(=O)C2CC2)CC1 [OLAPARIB] | > 10 | > 30 | > 30 | > 30 | > 30
O=c1[nH]c2ccccc2n1CCCN1CCN(C(c2ccccc2)c2ccccc2)CC1 [OXATOMIDE] | > 30 | 1.7 | > 30 | > 30 | > 30
C[C@]12C/C(=C/O)C(=O)C[C@@H]1CC[C@@H]1[C@@H]2CC[C@@]2(C)[C@H]1CC[C@]2(C)O [OXYMETHOLONE] | > 30 | > 30 | > 30 | > 30 | 19
COc1cc2[nH]c(C)c(CCN3CCN(c4ccccc4)CC3)c2cc1OC [OXYPERTINE] | > 30 | 0.49 | > 30 | > 30 | > 30
NC(=O)NC(=O)Cc1ccccc1 [PHENACEMIDE] | > 10 | > 30 | > 30 | > 10 | > 10
OC[C@H]1O[C@@H](Oc2cc(O)cc(/C=C/c3ccc(O)cc3)c2)[C@H](O)[C@@H](O)[C@@H]1O [PICEID] | > 30 | > 30 | > 30 | > 30 | 4.4
O=C1CC[C@@H](C(=O)N2CSC[C@H]2C(=O)O)N1 [PIDOTIMOD] ([pGlu]-[Thz]-OH) | > 30 | > 30 | > 30 | > 30 | > 30
CCCN(CCC)S(=O)(=O)c1ccc(C(=O)O)cc1 [PROBENECID] | > 10 | > 30 | > 30 | > 10 | > 10
CCC(NC(C)C)C(O)c1ccc(O)c2[nH]c(=O)ccc12 (stereo not given) [PROCATEROL] | > 30 | > 30 | > 30 | > 30 | > 30
CCC(=O)O[C@](Cc1ccccc1)(c1ccccc1)[C@H](C)CN(C)C [PROPOXYPHENE] | > 10 | > 30 | > 30 | > 30 | > 30
CCc1nc(N)nc(N)c1-c1ccc(Cl)cc1 [PYRIMETHAMINE] | > 10 | > 30 | > 30 | > 10 | > 10
O=c1c(O)c(-c2ccc(O)c(O)c2)oc2cc(O)cc(O)c12 [QUERCETIN] | > 10 | > 30 | > 30 | > 30 | > 30
CC1=C(/C=C/C(C)=C/C=C/C(C)=C/CO)C(C)(C)CCC1 [RETINOL] | > 10 | > 30 | > 30 | > 10 | > 10
C=CC[N+]1([C@H]2C[C@H]3[C@@H]4CC[C@H]5C[C@H](O)[C@@H](N6CCOCC6)C[C@]5(C)[C@H]4CC[C@]3(C)[C@H]2OC(C)=O)CCCC1 [ROCURONIUM] | > 30 | > 30 | > 30 | > 30 | > 30
CCCN1CCCC[C@H]1C(=O)Nc1c(C)cccc1C [ROPIVACAINE] | > 30 | > 30 | > 30 | > 30 | > 30
Cc1cc(C)nc(NS(=O)(=O)c2ccc(N)cc2)n1 [SULFAMETHAZINE] | > 10 | > 30 | > 30 | > 10 | > 10
CCN1CCCC1CNC(=O)c1cc(S(=O)(=O)CC)ccc1OC (stereo not given) [SULTOPRIDE] | > 30 | > 30 | > 30 | > 30 | > 30
C=CCN1CCc2nc(N)sc2CC1 [TALIPEXOLE] | > 30 | > 30 | > 30 | > 30 | > 30
CCOC(=O)c1ccc(C#Cc2ccc3c(c2)C(C)(C)CCS3)nc1 [TAZAROTENE] | > 10 | > 30 | > 30 | > 30 | > 30
CCOC(=O)[C@@H](N)Cc1ccc(-c2cc(O[C@H](c3ccc(Cl)cc3-n3ccc(C)n3)C(F)(F)F)nc(N)n2)cc1 [TELOTRISTAT ETHYL] | > 30 | > 30 | 24 | > 30 | > 30

— ChEMBL document CHEMBL5291721, “A preclinical secondary pharmacology resource illuminates target-adverse drug reaction associations of marketed drugs” (Nat Commun, 2023)
